According to patent US9555086B2, “Compositions and methods for inducing an immune response” (The Regents of the University of Michigan, priority 2010, dated 2017):
Entries after “also recorded” stand apart in the source; their conditions may differ. Blank lines part the entries; values can stand above or below the compound they belong to. Numbered stars: 1 amine (or outer) side, 2 acyl side, 3 side chain; on linkers, the order of the positions; unused ones are H or OH. Bridge positions count the residues as written; N and C are the ends. Square brackets hold non-standard residues; d marks the D form. Ends that are not written are not given here. Peptide text beside a SMILES is read from it. CO = O=C([*:1])[*:2]; Nlys = NCCCCNCC(=O)O

Tests used:
[1] = test system: antioxidative signaling pathway; conditions: read-out: IC50 as activator of antioxidative signaling pathway; cited from earlier work
trypsin and chymotrypsin [2] = experiment: Trypsin/chymotrypsin stability assay
trypsin and chymotrypsin [3] = conditions: pH 8
Th17 cells = experiment: ISL polarizing effect in vivo (CII in CFA immunization); parameters: species or system DBA/1 mice; conditions: 10 μg co-administered with CII in CFA, footpad; day 7
Protocol: (A) DBA/1 mice were immunized with CII in CFA in the presence of PBS, 65-79*0401 or 65-79*0402. On day 7, cells from draining lymph nodes were isolated, cultured for 6 hours with PMA, Ionomycin and Brefeldin A and then stained with anti-mouse CD4, IL17A and IFN-γ as above. On the left: Representative dot plots showing percentages of IL17A+ and IFN-γ+ cells obtained from gated CD4+ cells. On the right, bar graphs showing results as mean±SD of duplicate experiments. (B) DBA/1 and CII-TCR Tg mice were immunized as in (A). On day 7, splenic cells were isolated and cultured with the synthetic peptide CII260-267 (5 μg/ml). Supernatants were collected every 24 hours and assayed for IL-17 levels by ELISA.
Mice were injected subcutaneously in the footpad with 100 μg of chicken collagen type II (CII) (Chondrex, Inc, Redmond, Wash.) emulsified in CFA (4 mg/ml). The inoculums contained 10 μg of either ISL-positive 65-79*0401 or ISL-negative 65-79*0402 ligands in PBS, or an equal volume of PBS alone. Animals were sacrificed 7 days after immunization. For Th17 quantification studies, inguinal and popliteal lymph nodes were collected and single cell suspensions were prepared. Unfractionated lymph node cells were cultured with PMA, Ionomycin and Brefeldin A for 6 hours as above. Cells were stained with FITC anti-mouse CD4 or isotype controls, followed by fixation and permeabilization using a Cytofix-Cytoperm™ kit. After permeabilization, intracellular staining was performed using PE-conjugated anti-mouse IL17A and APC-conjugated anti-mouse IFN-γ and cells were analyzed by flow cytometry as above. To measure IL-17 production, splenocytes from mice immunized as above were stimulated in vitro with 5 μg of CII259-273 peptide. At different time points thereafter, supernatants were collected and assayed for IL-17 by ELISA as above.

CD8+ and CD8− DC = experiment: Cytokine production by splenic DC subsets (Luminex); format: cell-based, mouse; conditions: CD11c+CD8− DCs; 50 μg/ml peptide
Protocol: Splenic CD8+ and CD8− DC were isolated from DBA/1 mice as above and cultured in 96-well plates over time in the presence or absence of ISL-positive (65-79*0401) or ISL-negative (65-79*0402) peptides (50 μg/ml). At various time points thereafter, supernatants were collected and assayed for cytokine content, using the Luminex platform.
DBA/1 splenic unfractionated CD11c+ DCs (CD11c+), or their purified CD11c+CD8+ DCs (CD8+) or CD11c+CD8− DCs (CD8−) subsets were cultured with the ISL 65-79*0401 or ISL-negative control 65-79*0402 or medium. Supernatants were collected at different time points and assayed for cytokine content using a Luminex platform.
To determine the rate of NO production, cells were loaded with 20 μM of the fluorescent NO probe 4,5-diaminofluorescein diacetate (DAF-2DA) and the fluorescence level was recorded every 5 minutes over a period of 500 minutes using a Fusion αHT system (PerkinElmer Life Sciences) at an excitation wavelength of 488 nm and emission wavelength of 515 nm. To determine IDO enzymatic activity, the generation of its product, kynurenine was measured (Takikawa et al. 1988. J Biol Chem 263:2041-2048.; herein incorporated by reference in its entirety). Cytokine concentrations were measured in cell culture supernatants using a Luminex platform (Millipore Corporation, Danvers, Mass.). In some experiments, cytokines were determined using ELISA (Quantikine®, R&D Systems, Minneapolis, Minn.) following the manufacture's instruction.

[4] = test system: Human fibroblast M1 cells; experiment: Nitric Oxide Assay in human fibroblast M1 cells; format: cell-based
Protocol: FIGS. 17A and 17B show dose-response experiments of NO production rate induced by cyclic analogs. Human M1 fibroblasts were incubated with different concentrations of the listed cyclic peptides, or with 50 μM of positive (65-79*0401) or negative (65−79*0402) control peptides. NO production rates were determined using the fluorescent probe 4,5-diaminofluorescein diacetate (DAF-2DA) (See Ling et al., Arthritis Res Ther 2007, 9, R5; Ling et al., J. J Immunol 2007, 179, 6359; Ling et al., Arthritis Rheum 2006, 54, 3423).
Nitric Oxide Assay. Human fibroblast M1 cells were plated at a density of 1×10^5 cells per well in 96-well plates the day prior to the Nitric Oxide assay. To determine the rate of NO production in fibroblast, cells were first loaded with 20 μM of the fluorescent NO probe 4,5-diaminofluorescein diacetate (DAF-2DA), incubated in the dark at 37° C. for 1 hour and washed in 100 μL of DMEM/phenol red-free medium. The fluorescence level was recorded every 5 minutes over a period of 500 minutes, using a Fusion αHT system (PerkinElmer Life Sciences) at an excitation wavelength of 488 nm and emission wavelength of 515 nm. The NO production rate is expressed as the mean±SEM fluorescence units per minute.

Compound: C=C(C)CCOP(=O)(O)OP(=O)(O)O [IPP, Isopentenyl diphosphate]
IC50 [1]: 0.017 nM

stability towards trypsin/chymotrypsin degradation (HPLC) (trypsin and chymotrypsin [2]; 4 hours of incubation, 37° C., pH 8): completely stable
cleavage fragments in MS analysis (trypsin and chymotrypsin [2]; after trypsin/chymotrypsin incubation): no fragments were observed
Compound: C[C@H](NC(=O)CN1CCCCNC(=O)NCCCCN(C(=O)[C@@H](N)Cc2c[nH]c3ccccc23)CC(=O)N[C@@H](CCC(N)=O)C(=O)N[C@@H](CCCCN)C(=O)N[C@@H](CCCNC(=N)N)C1=O)C(N)=O [c(HS4-4)] (H-W[Nlys]QKR[Nlys]A-NH2; linker 2-6 via CO)

degradation by trypsin/chymotrypsin (HPLC) (trypsin and chymotrypsin [3]): degraded completely
Compound: H-KDLLEQRRAAVDTYC-NH2 [65-79*0404]

Compound: H-Lys-Asp-Ile-Leu-Glu-Asp-Glu-Arg-Ala-Ala-Val-Asp-Thr-Tyr-Cys-NH2 (H-KDILEDERAAVDTYC-NH2) [65-79*0402, reference compound]
Th17 abundance in draining lymph nodes (Th17 cells): no effect
IL-6 production (CD8+ and CD8− DC): did not trigger any increased production; also recorded: did not trigger any cytokine production

Compound: c(HS6-2): cyclic analog named only in b214; probably a misprint of c(HS2-4) (QRRAA; bridge (positions not given here) via CO; also: urea backbone cyclisation, places not given here)
potency in activating NO production (in words) [4]: potent analogs
